Test results from patent US20240246956A1, “CLASS IIA HISTONE DEACETYLASE (HDAC) DEGRADER LIGANDS AND METHODS OF USE THEREOF” (DANA-FARBER CANCER INSTITUTE, INC., priority 2021, published 2024).

What was measured:
[1] = molecular target: T1, CRBN (Homo sapiens, UniProt Q96SW2); assay: Cellular CRBN engagement assay (competition with dBET6, BRD4BD2-eGFP reporter); assay type: cell-based; conditions: FIG. 1; for cell permeability (from cellular CRBN engagement): Flp-In 293 reporter cells; for IC50: competition with 100 nM dBET6, 5 h, Flp-In 293 cells expressing BRD4BD2-eGFP and mCherry
T1 construct: endogenous in cells; host or cells: Flp-In 293 cells stably expressing BRD4BD2-eGFP and mCherry
Experimental: BRD4BD2 was subcloned into mammalian pcDNA5/FRT Vector (Ampicillin and Hygromycin B resistant) modified to contain MCS-eGFP-P2A-mCherry. Stable cell lines expressing eGFP-protein fusion and mCherry reporter were generated using Flp-In™ 293 system. Plasmid (0.3 μg) and pOG44 (4.7 μg) DNA were preincubated in 100 μL of Opti-MEM™ I (Gibco™, Life Technologies™) media containing 0.05 mg/ml Lipofectamine 2000 (Invitrogen™) for 20 min and added to Flp-In™ 293 cells containing 1.9 ml of Dulbecco's Modified Eagle Medium (DMEM) media (Gibco™, Life Technologies™) per well in a 6-well plate format (Falcon, 353046). Cells were propagated after 48 h and transferred into a 10 cm^2 plate (Corning®, 430165) in DMEM media containing 50 μg/ml of Hygromycin B (Invitrogen™, REF 10687010) as a selection marker. Following 2-3 passage cycles, FACS (FACSAria™ II, BD) was used to enrich for cells expressing eGFP and mCherry.
Stable cells expressing the BRD4BD2-eGFP protein fusion and the mCherry reporter were seeded at a density of 1000-4000 cells/well in a 384-well plate with 50 μL per well of FluoroBrite™ DMEM media (Thermo Fisher Scientific, A18967) supplemented with 10% FBS a day before compound treatment. Compounds and 100 nM dBET6 were dispensed using a D300e Digital Dispenser (HP), normalized to 0.5% DMSO, and incubated with the cells for 5 h. The assay plate was imaged immediately using an acument High Content Imager (TTP Labtech) with 488 nm and 561 nm lasers in a […] grid per well format. The resulting images were analyzed using CellProfiler™ (Carpenter et al., Genome Biol. 7(10):R100 (2006)). A series of image analysis steps (an ‘image analysis pipeline’) was constructed. First, the red and green channels were aligned and cropped to target the middle of each well (to avoid analysis of the heavily clumped cells at the edges). A background illumination function was calculated for both red and green channels of each well individually and subtracted to correct for illumination variations across the 384-well plate from various sources of error. An additional step was then applied to the green channel to suppress the analysis of large auto fluorescent artifacts and enhance the analysis of cell specific fluorescence by way of selecting for objects under a given size (30 A.U.) and with a given shape (speckles). mCherry-positive cells were then identified in the red channel by filtering for objects 8-60 pixels in diameter and by using intensity to distinguish between clumped objects. […] The fraction of GFP-positive cells/mCherry-positive cells in each well was then calculated, and the green and red images were rescaled for visualization. […]

[2] = molecular target: HDAC5 (Homo sapiens, UniProt Q9UQL6); assay: In vitro HDAC enzymatic assay (Reaction Biology); assay type: biochemical; design: purchased Reaction Biology (Devault, PA); conditions: dose response, FIG. 2A-2B

SMILES | cell permeability (from cellular CRBN engagement) [1] | IC50 [1] [µM] | inhibition of HDAC5 [2]
O=C1CCC(N2C(=O)c3cccc(NCCCCCCN4CCC(CNC(=O)c5cccc(-c6noc(C(F)(F)F)n6)c5)(c5nc(-c6ccccc6)cs5)CC4)c3C2=O)C(=O)N1 (stereo not drawn) [Compound 1] | cell permeable | 0.14 | inhibited
CCN(CCNc1cccc2c1C(=O)N(C1CCC(=O)NC1=O)C2=O)C[C@@H](C)NC(=O)c1ccc(-c2noc(C(F)(F)F)n2)cc1 (stereo partly drawn) [Compound 16, N-((2R)-1-((2-((2-(2,6-dioxopiperidin-3-yl)-1,3-dioxoisoindolin-4-yl)amino)ethyl)(ethyl)amino)propan-2-yl)-4-(5-(trifluoromethyl)-1,2,4-oxadiazol-3-yl)benzamide] | cell permeable | 6.98 | inhibited
